Laboratory results from ChEMBL document CHEMBL1201862, “PubChem BioAssay data set” (2004).
The source made the active and inactive calls.

Columns and labels:
[1] = target: T1, Oxysterols receptor LXR-beta (Homo sapiens, UniProt P55055); assay type: functional, cell-based;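 note: agonist activity at LXR measured by a cell-based luminescence readout across a dose range, run as a counterscreen for daf-12 agonists; HEK293 cells with Gal4-LXR fusion and GAL4-driven luciferase reporter; potency for activation of Gal4-LXR reporter so compounds are agonists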
T1 sequence (P55055 whole entry): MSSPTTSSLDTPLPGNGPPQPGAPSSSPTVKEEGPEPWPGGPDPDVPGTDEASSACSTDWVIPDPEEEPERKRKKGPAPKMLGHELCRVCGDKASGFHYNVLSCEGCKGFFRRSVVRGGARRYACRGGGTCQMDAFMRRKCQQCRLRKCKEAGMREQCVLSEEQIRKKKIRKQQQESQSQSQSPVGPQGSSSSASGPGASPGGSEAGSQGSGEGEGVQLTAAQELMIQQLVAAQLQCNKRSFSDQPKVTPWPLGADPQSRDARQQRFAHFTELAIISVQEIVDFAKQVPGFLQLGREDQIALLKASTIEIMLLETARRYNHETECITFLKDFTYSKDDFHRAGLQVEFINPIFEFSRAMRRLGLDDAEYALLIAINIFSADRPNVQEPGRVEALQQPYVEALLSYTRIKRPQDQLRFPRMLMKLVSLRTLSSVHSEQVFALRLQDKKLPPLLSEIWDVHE

[2] = target: T2, Sentrin-specific protease 1 (Homo sapiens, UniProt Q9P0U3); assay: Dose response confirmation of small molecule inhibitors of the catalytic domain of the SUMO protease, SENP1 in a FRET assay.; assay type: functional; details: read-out: IC50_Mean
T2 sequence (Q9P0U3 whole entry): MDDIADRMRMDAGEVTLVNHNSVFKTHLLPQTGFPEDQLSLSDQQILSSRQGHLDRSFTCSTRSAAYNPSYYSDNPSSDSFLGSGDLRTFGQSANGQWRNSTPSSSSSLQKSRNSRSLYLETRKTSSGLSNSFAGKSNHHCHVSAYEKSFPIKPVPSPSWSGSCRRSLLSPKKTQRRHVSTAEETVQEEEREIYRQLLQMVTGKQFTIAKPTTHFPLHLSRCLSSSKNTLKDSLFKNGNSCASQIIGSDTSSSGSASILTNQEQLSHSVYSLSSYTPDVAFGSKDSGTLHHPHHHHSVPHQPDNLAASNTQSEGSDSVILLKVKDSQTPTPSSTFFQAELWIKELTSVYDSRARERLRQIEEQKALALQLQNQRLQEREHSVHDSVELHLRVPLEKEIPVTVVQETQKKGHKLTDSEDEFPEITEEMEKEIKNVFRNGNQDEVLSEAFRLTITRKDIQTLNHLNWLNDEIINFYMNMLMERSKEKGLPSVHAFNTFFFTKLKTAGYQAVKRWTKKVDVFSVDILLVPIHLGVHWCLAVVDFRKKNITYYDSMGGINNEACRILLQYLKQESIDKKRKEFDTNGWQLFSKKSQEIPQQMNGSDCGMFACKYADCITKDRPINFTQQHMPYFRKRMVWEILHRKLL

[3] = target: T2, Sentrin-specific protease 1; assay: potency of human SENP1 inhibitors, dose response, biochemical, kinetic FRET (AID 651697); assay type: functional; details: read-out: IC50_Mean
Protein skinhead-1 = target: T3, Protein skinhead-1 (Caenorhabditis elegans, UniProt P34707); assay type: functional
T3 sequence (P34707 whole entry): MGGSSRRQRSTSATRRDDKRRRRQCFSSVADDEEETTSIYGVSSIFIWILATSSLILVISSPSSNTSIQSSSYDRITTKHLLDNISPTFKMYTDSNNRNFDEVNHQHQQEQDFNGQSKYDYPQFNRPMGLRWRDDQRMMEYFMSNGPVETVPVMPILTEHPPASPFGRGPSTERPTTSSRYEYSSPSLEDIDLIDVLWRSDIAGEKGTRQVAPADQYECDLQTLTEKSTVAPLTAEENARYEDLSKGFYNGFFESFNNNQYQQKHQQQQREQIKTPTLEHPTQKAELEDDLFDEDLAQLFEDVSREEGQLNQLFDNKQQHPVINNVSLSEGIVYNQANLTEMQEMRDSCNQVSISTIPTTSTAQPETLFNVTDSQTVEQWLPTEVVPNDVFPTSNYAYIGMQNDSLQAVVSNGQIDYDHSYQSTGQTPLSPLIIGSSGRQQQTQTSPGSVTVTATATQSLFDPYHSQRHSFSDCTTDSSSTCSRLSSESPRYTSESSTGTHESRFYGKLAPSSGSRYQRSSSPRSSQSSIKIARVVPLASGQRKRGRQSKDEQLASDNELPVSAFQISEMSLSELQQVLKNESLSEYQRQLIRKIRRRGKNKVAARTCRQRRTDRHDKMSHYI

[4] = target: Mitogen-activated protein kinase 10 (Homo sapiens, UniProt P53779); assay: Dose response biochemical screening assay for inhibitors of c-Jun N-Terminal Kinase 3 (JNK3). [Related pubchem assays: 746 ]
[5] = target: T4, Polyadenylate-binding protein 1 (Homo sapiens, UniProt P11940); assay: PABP1 MLLE–PAM2 interaction inhibitors, dose response, miRNA deadenylation inhibitor project, biochemical, fluorescence polarization, Cy5-PAM2 peptide, secondary (AID 602260); assay type: functional; details: read-out: IC50_Mean
[6] = target: T4, Polyadenylate-binding protein 1; assay: PABP1 MLLE–PAM2 binding inhibitor potency, dose response, biochemical, fluorescence polarization, FITC-PAM2 peptide (AID 602259); assay type: functional; details: read-out: IC50_Mean
Nonstructural protein 1 = Nonstructural protein 1 (Influenza A virus, UniProt Q194T2); assay type: functional, Influenza A virus (A/California/07/2009(H1N1))
[7] = P. falciparum Dd2 growth inhibitors, dose response, SYBR Green, dry powder samples, set 9 (AID 1159568); assay type: functional, cell-based
[8] = target: Luciferin 4-monooxygenase (Photinus pyralis, UniProt P08659); assay: firefly luciferase enzyme inhibitors, dose response, biochemical, luminescence (AID 1891)
[9] = HepG2 cell cytotoxicity, dose response, cytotoxicity control, ATP luminescence, cherry-pick, activator set 2 (AID 1053143); assay type: functional, cell-based
[10] = HeLa cell cytotoxicity, dose response, cytotoxicity control for MgcRacGAP inhibitor project (AID 624300); assay type: functional
[11] = target: T5, Rac GTPase-activating protein 1 (Homo sapiens, UniProt Q9H0H5); assay: MgcRacGAP GTPase-activating activity inhibitors, confirmation, biochemical, ADP Hunter fluorescence, primary and confirmatory (AID 624330); assay type: functional
T5 sequence (Q9H0H5 whole entry): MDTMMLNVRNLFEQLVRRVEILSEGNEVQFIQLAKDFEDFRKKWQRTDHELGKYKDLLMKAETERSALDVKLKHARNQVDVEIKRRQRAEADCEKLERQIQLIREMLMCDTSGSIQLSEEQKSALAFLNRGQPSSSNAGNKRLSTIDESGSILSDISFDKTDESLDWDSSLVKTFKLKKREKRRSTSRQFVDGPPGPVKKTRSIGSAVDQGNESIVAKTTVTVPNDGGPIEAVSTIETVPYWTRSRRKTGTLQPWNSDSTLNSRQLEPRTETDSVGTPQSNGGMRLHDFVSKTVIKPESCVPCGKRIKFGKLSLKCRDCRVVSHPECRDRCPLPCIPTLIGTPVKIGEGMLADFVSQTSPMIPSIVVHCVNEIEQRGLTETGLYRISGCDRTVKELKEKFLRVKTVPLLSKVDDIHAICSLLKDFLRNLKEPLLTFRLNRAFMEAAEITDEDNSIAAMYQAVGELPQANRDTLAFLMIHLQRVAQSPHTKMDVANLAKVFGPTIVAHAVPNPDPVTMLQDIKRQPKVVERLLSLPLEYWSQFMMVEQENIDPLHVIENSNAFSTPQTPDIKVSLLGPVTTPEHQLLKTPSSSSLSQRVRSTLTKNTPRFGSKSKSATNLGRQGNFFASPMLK

Large T antigen = Large T antigen (Simian virus 40, UniProt P03070); assay type: functional, Betapolyomavirus macacae;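 note: Confirmatory-stage PubChem screen for compounds that inhibit SV40 T antigen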
[12] = Luminescence Cell-Based Dose Confirmation HTS to Identify Inhibitors of Platelet Dense Granule Release. [Related pubchem assays: 1663 (Primary HTS), 1678 (Summary of Project)]; assay type: functional
Fatty acid synthase [13] = target: T6, Fatty acid synthase (Homo sapiens, UniProt P49327); assay: FAS thioesterase domain inhibitors, dose response, biochemical, endpoint fluorescence intensity, uHTS hits (AID 624327); assay type: functional;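 note: fluorescence from hydrolysis of an O-methyl fluorescein acyl ester substrate by the enzyme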
Fatty acid synthase [14] = target: T6, Fatty acid synthase; assay: FAS thioesterase domain inhibitors, dose response, biochemical, kinetic fluorescence intensity (AID 624326); assay type: functional;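 note: rate of fluorescence rise from hydrolysis of a fluorogenic O-methyl fluorescein ester substrate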

T4 sequence (P11940 whole entry): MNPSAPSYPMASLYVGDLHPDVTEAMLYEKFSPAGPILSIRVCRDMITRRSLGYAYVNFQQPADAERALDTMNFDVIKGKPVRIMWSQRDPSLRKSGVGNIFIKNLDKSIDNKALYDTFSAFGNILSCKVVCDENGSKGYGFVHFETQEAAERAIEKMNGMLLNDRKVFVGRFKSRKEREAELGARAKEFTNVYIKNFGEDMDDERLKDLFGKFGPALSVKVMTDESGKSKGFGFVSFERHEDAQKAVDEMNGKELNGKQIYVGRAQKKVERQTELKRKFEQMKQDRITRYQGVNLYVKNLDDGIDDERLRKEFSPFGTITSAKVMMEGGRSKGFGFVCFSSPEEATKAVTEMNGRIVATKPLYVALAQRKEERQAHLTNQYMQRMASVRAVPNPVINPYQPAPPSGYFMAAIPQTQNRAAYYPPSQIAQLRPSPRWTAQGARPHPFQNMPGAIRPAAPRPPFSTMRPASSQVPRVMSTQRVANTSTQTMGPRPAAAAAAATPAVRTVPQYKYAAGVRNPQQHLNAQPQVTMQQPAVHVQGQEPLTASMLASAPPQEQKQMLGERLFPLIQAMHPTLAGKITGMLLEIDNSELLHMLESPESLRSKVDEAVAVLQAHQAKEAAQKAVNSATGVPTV
T6 sequence (P49327 whole entry, the tested form may be a part): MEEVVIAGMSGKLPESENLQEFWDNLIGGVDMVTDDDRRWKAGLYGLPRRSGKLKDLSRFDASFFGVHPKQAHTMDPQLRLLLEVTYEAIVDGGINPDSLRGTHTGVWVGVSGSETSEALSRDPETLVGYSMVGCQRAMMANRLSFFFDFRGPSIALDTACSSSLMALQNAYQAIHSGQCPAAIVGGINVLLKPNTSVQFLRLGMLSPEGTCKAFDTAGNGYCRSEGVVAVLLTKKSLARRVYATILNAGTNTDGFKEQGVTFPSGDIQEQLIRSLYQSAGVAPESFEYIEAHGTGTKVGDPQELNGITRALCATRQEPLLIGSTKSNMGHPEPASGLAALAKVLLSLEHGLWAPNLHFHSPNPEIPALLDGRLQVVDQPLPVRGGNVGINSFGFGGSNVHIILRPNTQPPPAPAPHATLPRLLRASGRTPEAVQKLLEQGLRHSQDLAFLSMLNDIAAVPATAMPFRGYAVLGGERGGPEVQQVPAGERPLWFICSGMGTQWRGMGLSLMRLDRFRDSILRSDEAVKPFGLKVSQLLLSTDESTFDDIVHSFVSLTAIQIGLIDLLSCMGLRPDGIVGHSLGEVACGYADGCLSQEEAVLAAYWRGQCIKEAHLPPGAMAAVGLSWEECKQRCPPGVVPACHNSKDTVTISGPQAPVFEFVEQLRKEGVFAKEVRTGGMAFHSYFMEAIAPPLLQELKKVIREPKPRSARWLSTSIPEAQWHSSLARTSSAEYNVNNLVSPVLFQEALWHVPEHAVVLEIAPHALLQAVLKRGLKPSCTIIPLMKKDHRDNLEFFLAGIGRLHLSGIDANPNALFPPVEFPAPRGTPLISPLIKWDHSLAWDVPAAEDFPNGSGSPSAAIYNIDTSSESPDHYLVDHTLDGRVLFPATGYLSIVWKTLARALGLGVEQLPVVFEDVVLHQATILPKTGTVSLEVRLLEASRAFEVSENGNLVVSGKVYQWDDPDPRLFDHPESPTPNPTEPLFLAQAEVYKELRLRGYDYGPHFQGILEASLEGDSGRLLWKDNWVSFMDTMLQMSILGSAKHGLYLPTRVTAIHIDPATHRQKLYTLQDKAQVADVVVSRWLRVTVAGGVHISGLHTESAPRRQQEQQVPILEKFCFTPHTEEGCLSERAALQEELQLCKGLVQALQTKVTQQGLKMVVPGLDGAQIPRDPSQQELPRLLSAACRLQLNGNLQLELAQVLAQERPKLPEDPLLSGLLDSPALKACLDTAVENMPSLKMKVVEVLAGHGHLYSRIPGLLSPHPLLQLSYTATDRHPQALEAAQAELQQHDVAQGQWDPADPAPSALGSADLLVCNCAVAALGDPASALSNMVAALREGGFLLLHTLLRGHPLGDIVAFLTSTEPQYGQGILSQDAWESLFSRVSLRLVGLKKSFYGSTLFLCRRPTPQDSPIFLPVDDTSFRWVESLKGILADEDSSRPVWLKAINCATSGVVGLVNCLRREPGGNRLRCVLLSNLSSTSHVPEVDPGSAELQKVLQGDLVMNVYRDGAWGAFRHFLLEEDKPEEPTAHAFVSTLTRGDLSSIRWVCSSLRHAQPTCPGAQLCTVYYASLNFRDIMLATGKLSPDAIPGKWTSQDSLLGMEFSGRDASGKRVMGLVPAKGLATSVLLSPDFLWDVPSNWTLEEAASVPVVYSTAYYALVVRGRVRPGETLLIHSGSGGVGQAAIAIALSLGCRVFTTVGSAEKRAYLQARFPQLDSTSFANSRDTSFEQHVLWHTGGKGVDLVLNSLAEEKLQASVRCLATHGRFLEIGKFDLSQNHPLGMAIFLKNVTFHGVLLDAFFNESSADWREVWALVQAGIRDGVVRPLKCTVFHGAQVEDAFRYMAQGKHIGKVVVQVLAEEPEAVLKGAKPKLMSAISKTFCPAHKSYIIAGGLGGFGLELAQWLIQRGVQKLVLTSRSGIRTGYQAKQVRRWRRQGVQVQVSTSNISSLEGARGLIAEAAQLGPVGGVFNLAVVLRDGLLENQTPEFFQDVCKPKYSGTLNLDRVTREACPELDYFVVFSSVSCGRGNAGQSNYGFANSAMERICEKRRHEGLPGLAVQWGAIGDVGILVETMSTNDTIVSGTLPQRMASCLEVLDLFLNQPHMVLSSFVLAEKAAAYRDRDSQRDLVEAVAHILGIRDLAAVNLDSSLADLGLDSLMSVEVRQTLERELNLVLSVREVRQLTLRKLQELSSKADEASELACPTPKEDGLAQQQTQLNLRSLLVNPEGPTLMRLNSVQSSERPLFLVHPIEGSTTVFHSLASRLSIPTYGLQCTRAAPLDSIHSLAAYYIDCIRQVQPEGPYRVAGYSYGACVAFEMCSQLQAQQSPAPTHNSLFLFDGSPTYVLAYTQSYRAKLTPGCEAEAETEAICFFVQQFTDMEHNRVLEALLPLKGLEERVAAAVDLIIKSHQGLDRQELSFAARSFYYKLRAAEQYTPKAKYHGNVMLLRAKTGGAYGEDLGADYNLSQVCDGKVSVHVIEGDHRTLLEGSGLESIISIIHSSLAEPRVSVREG
Chain of Luciferin 4-monooxygenase (P08659 whole entry): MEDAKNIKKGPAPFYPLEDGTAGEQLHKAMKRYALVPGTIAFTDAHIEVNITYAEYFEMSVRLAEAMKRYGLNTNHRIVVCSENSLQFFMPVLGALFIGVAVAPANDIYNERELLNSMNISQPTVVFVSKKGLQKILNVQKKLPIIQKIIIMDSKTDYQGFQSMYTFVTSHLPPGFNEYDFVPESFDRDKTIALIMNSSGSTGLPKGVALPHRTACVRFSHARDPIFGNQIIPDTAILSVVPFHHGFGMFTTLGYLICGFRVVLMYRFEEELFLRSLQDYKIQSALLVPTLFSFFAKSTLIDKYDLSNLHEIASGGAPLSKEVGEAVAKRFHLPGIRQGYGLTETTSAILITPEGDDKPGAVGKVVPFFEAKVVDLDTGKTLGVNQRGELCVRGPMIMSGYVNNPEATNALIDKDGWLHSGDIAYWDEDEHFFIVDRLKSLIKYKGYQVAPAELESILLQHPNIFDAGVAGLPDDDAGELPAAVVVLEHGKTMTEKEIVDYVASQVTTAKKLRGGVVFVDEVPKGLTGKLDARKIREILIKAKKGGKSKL
Chain of Mitogen-activated protein kinase 10 (P53779 whole entry): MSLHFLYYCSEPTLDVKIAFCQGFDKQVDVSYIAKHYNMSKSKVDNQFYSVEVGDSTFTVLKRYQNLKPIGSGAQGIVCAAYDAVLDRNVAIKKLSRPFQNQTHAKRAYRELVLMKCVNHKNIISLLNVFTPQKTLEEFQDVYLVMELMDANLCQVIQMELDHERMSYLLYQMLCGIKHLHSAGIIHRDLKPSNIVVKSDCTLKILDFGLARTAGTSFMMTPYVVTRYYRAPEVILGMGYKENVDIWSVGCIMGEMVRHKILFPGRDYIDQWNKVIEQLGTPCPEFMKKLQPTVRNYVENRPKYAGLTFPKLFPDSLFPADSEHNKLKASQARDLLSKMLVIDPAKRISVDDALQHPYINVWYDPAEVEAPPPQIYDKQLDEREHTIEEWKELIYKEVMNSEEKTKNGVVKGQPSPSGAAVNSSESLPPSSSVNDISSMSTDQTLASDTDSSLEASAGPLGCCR
Chain of Nonstructural protein 1 (Q194T2 whole entry): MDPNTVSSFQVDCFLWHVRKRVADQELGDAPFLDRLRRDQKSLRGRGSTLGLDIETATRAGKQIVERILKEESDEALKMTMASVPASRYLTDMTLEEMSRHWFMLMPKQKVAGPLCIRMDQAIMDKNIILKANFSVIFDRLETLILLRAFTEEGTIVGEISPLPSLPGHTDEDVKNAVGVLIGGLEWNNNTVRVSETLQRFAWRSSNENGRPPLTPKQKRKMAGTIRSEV
Chain of Large T antigen (P03070 whole entry): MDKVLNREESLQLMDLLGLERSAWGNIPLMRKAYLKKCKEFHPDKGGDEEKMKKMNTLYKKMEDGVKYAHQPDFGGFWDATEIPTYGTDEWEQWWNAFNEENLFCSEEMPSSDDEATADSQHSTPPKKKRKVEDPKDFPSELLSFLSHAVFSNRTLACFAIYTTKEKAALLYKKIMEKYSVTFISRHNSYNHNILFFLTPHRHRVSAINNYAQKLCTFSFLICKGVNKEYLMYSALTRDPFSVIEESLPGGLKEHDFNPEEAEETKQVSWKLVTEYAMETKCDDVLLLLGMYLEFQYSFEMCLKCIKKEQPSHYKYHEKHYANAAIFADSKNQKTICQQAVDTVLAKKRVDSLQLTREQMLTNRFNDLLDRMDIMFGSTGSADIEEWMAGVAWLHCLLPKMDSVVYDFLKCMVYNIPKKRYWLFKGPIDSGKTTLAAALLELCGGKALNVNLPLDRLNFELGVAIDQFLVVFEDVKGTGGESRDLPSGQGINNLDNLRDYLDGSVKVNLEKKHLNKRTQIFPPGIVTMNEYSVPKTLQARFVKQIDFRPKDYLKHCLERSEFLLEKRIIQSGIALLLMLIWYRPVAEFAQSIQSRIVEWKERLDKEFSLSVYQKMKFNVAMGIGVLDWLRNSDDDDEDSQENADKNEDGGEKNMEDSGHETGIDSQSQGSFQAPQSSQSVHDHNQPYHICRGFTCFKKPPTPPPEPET

Structure (SMILES): Cc1ccc(NC(=S)NC(=O)C2CCCC2)c(Br)c1
- EC50 [1]: > 67.5 µM (inactive)

Structure (SMILES): Cc1sc(-c2ccccn2)nc1OC(=O)c1ccc(F)cc1F
- IC50 [2]: 16.6 µM (active)
- IC50 [3]: 3.57 µM (active)

Structure (SMILES): c1csc(Cn2nnnc2CN2CCN(c3nc4ccccc4s3)CC2)c1
- IC50 (Protein skinhead-1): > 100 µM (inactive)

Structure (SMILES): CCc1ccc2c(COC(=O)c3n[nH]c4ccccc34)cc(=O)oc2c1
- IC50 [4]: > 93.1 µM (not active)

Structure (SMILES): Cn1c(NCc2c[nH]c3ccccc23)nc2ccccc21
- EC50 [1]: > 67.5 µM (inactive)

Structure (SMILES): CNc1cccc2c1C(=O)c1ccccc1C2=O
- IC50 [5]: > 66 µM (inactive)
- IC50 [6]: 49.1 µM (inactive)
- IC50 (Nonstructural protein 1): 8.18 µM (active)
- IC50 (Protein skinhead-1): > 100 µM (inactive)

Structure (SMILES): O=C(Nc1cccc(F)c1)N1CCCCN2[C@H](CO)[C@@H](c3ccc(C#Cc4cccnc4)cc3)[C@@H]2C1
- AC50 [7]: 2.58 µM (active)

Structure (SMILES): Oc1ccc(/C=N/Nc2nccnc2Cl)cc1
- EC50 [8]: 1.12 µM (active)
- AC50 [9]: 13.7 µM (active)
- CC50 [10]: 46.1 µM (active)
- IC50 [11]: 16.3 µM (active)
- IC50 (Large T antigen): 6.32 µM (active)
- EC50 [12]: 0.138 µM (active)

Structure (SMILES): COc1ccc2c3c([nH]c2c1)[C@H](CO)N(S(C)(=O)=O)CC31CCN(C(=O)Nc2ccccc2)CC1
- AC50 [7]: 0.145 µM (active)

Structure (SMILES): Cc1ccccc1N(CC(=O)NCc1ccc2c(c1)OCO2)C(=O)C1CSC(=O)C1 (configuration not stated)
- IC50 (Fatty acid synthase [13]): 5.85 µM (active)
- IC50 (Fatty acid synthase [14]): 4.48 µM (active)

Structure (SMILES): O=C1C=C(c2cccc(Cl)c2O)C[C@@H](c2ccc(F)cc2)C1
- IC50 [2]: 1.14 µM (active)
- IC50 [3]: 2.61 µM (active)
